Measurements as given in US12606795B2 (Thankcome Biological Science and Technology (SuZhou) Co., …, priority 2023, dated 2026).

System: SPF Kunming mice
Assay: Acute toxicity in mice
Assay type: in vivo
Details: for Granulocyte number GR# / Granulocyte percentage GR % / Hematocrit HCT / Hemoglobin HGB / Lymphocyte number Lym# / Lymphocyte percentage Lym % / Mean corpuscular hemoglobin MCH / Mean corpuscular volume MCV / Mean corpuscular-hemoglobin concentration MCHC / Mean platelet volume MPV / Middle cell number Mid# / Middle cell percentage Mid % / Platelet distribution PDW / Platelet-large cell count PLCC / Platelet-large cell ratio PLCR / Plateletcrit PCT / Platelets PLT / Red blood cell distribution width coefficient of variation RDW_CV / Red blood cell distribution width standard deviation RDW_SD / Red blood cells RBC / While blood cells WBC: acute toxicity
Method: The groups were recorded as a sodium chloride solution group, a low dosage group, a medium dosage group and a high dosage group, respectively, and the general conditions and the body weight were observed per day within 7 to 10 d. At the end of the experimental period, blood samples were collected for hematological and serum biochemical analysis (refer to Embodiment 4). A histopathological examination of major organs and tissue was performed on all animals in each group (refer to Embodiment 4).

[1] = high dosage 5×10^11 CFU/d intragastric for 1 d
[2] = low dosage 1×10^9 CFU/d intragastric for 1 d
[3] = medium dosage 5×10^10 CFU/d intragastric for 1 d

In the case of Akkermansia muciniphila [AKK PROBIO], the “pathological sections of livers and kidneys” value (acute) is reported as “no significant pathological injury”, the death (acute intragastric administration, high, medium and low dosage (5×10^11, 5×10^10, 1×10^9 CFU/d)) is reported as “no death occurs” and the “Granulocyte number GR#” value [1] is reported as 0 ± 0 10^9/L. For the same substance, the “Granulocyte percentage GR %” value [1] was 0 ± 0%, the “Hematocrit HCT” value [1] was 7.35 ± 2.76% and the “Hemoglobin HGB” value [1] was 110.00 g/L. The “Lymphocyte number Lym#” value [1] was 0.54 ± 0.37 10^9/L, the “Lymphocyte percentage Lym %” value [1] was 100 ± 0% and the “Mean corpuscular hemoglobin MCH” value [1] was 81.55 pg. The “Mean corpuscular volume MCV” value [1] was 52.60 fL, the “Mean corpuscular-hemoglobin concentration MCHC” value [1] was 1579.00 g/L and the “Mean platelet volume MPV” value [1] was 9.20 ± 0.71 fL. For the same substance, the “Middle cell number Mid#” value [1] was 0 ± 0 10^9/L, the “Middle cell percentage Mid %” value [1] was 0 ± 0% and the “Platelet distribution PDW” value [1] was 21.00%. The “Platelet-large cell count PLCC” value [1] was 218.50 ± 10^9/L, the “Platelet-large cell ratio PLCR” value [1] was 19.70% and the “Plateletcrit PCT” value [1] was 1.04 ± 0.40%. The “Platelets PLT” value [1] was 1112.50 ± 10^9/L, the “Red blood cell distribution width coefficient of variation RDW_CV” value [1] was 13.75% and the “Red blood cell distribution width standard deviation RDW_SD” value [1] was 92.55 fL. For the same substance, the “Red blood cells RBC” value [1] was 1.38 ± 0.35 10^12/L, the “While blood cells WBC” value [1] was 0.54 ± 0.37 10^9/L and the “Granulocyte number GR#” value [2] was 0.05 ± 10^9/L. For the same substance, the “Granulocyte percentage GR %” value [2] was 3.8%, the “Hematocrit HCT” value [2] was 11.70% and the “Hemoglobin HGB” value [2] was 87.50 g/L. For the same substance, the “Lymphocyte number Lym#” value [2] was 0.82 ± 10^9/L, the “Lymphocyte percentage Lym %” value [2] was 95.55% and the “Mean corpuscular hemoglobin MCH” value [2] was 45.35 pg. For the same substance, the “Mean corpuscular volume MCV” value [2] was 55.90 fL, the “Mean corpuscular-hemoglobin concentration MCHC” value [2] was 802.00 g/L and the “Mean platelet volume MPV” value [2] was 9.55 fL. The “Middle cell number Mid#” value [2] was 0.01 ± 10^9/L, the “Middle cell percentage Mid %” value [2] was 0.65% and the “Platelet distribution PDW” value [2] was 19.10%. The “Platelet-large cell count PLCC” value [2] was 273.50 ± 10^9/L, the “Platelet-large cell ratio PLCR” value [2] was 27.65% and the “Plateletcrit PCT” value [2] was 0.89%. For the same substance, the “Platelets PLT” value [2] was 921.00 ± 10^9/L, the “Red blood cell distribution width coefficient of variation RDW_CV” value [2] was 14.85% and the “Red blood cell distribution width standard deviation RDW_SD” value [2] was 76.40 fL. For the same substance, the “Red blood cells RBC” value [2] was 2.12 ± 10^12/L, the “While blood cells WBC” value [2] was 0.88 ± 10^9/L and the “Granulocyte number GR#” value [3] was 0.06 ± 10^9/L. For the same substance, the “Granulocyte percentage GR %” value [3] was 4.20 ± 5.94%, the “Hematocrit HCT” value [3] was 11.70% and the “Hemoglobin HGB” value [3] was 96.00 g/L. For the same substance, the “Lymphocyte number Lym#” value [3] was 0.99 ± 10^9/L, the “Lymphocyte percentage Lym %” value [3] was 95.20% and the “Mean corpuscular hemoglobin MCH” value [3] was 49.20 pg. The “Mean corpuscular volume MCV” value [3] was 53.05 fL, the “Mean corpuscular-hemoglobin concentration MCHC” value [3] was 892.00 g/L and the “Mean platelet volume MPV” value [3] was 9.15 ± 0.78 fL. The “Middle cell number Mid#” value [3] was 0.01 ± 10^9/L, the “Middle cell percentage Mid %” value [3] was 0.60% and the “Platelet distribution PDW” value [3] was 20.15%. The “Platelet-large cell count PLCC” value [3] was 158.50 ± 10^9/L, the “Platelet-large cell ratio PLCR” value [3] was 18.00% and the “Plateletcrit PCT” value [3] was 0.84 ± 0.54%. The “Platelets PLT” value [3] was 891.50 ± 10^9/L, the “Red blood cell distribution width coefficient of variation RDW_CV” value [3] was 13.05% and the “Red blood cell distribution width standard deviation RDW_SD” value [3] was 73.40 fL. For the same substance, the “Red blood cells RBC” value [3] was 2.28 ± 10^12/L, the “While blood cells WBC” value [3] was 1.06 ± 10^9/L and the “weight of major organs (organ indices)” value (acute, heart, liver, spleen, kidneys, thymus, brain, testes, lungs, stomach, intestine, vs control group) was “substantially no significant difference”. For the same substance, the “activity of glutamic oxalacetic transaminase (GOT) in both serum and liver” value (acute, vs control group) was “no significant difference”, the “activity of glutamic pyruvate transaminase (GPT) in both serum and liver” value (acute, vs control group) was “no significant difference” and the “concentration of blood urea nitrogen (BUN) in serum” value (acute, vs control group) was “no significant difference”. The “content of creatinine (GRE) in serum” value (acute, vs control group) was “no significant difference”, the “level of glucose (GLU) in both serum and liver” value (acute, vs control group) was “no significant difference” and the “level of the bile acid in both serum and liver” value (acute, vs control group) was “no significant difference”. The “level of the cholesterol in both serum and liver” value (acute, vs control group) was “no significant difference”, the “level of total protein (TP) in both serum and liver” value (acute, vs control group) was “no significant difference” and the “level of the triglyceride in serum” value (acute, vs control mice) was “no significant difference”. The “changes of blood glucose per day” value (acute, vs control saline group) was “no significant difference”, the “changes of body weight per day” value (acute, vs control saline group) was “no significant difference” and the “changes of food intake per day” value (acute, vs control saline group) was “no significant difference”. For the same substance, the “level of triglyceride in the liver” value (acute, vs control saline group) was “significantly lower” and the various blood indicators (acute, vs control saline group) was “no significant difference”.
